The values that follow come from ChEMBL document CHEMBL2010693, “Scaffold hybridization in generation of indenoindolones as anticancer agents that induce apoptosis with cell cycle arrest at G2/M phase” (Bioorg Med Chem Lett, 2012).

The structures appear in SMILES notation. The source made the active and inactive calls. No cut-off for these calls is given here.

A short description of data set [1]: Cytotoxicity against african green monkey Vero cells after 48 hrs by MTT assay. The data set is classed as cell-based. The conditions noted are these: chlorocebus sabaeus, read-out: LC50. In general terms: Formazan colour is commonly taken as a measure of viable cells.
For data set [2], the system named is HEK293. As to the kind of experiment: Cytotoxicity against human HEK293 cells after 48 hrs by MTT assay. The format is functional. The note with it: HEK293, 48 h, read-out: LC50 (the source's name).
Data set [3] has as its system HEK293. As to the kind of experiment: Induction of apoptosis in human HEK293 cells assessed as increase in Bax expression after 48 hrs by Western blot analysis. The data set is classed as functional, cell-based. On the technique in general: Immunoblotting shows a protein as a band on a membrane.
Data set [4] can be described thus: Cytotoxicity against african green monkey Vero cells after 24 hrs by MTT assay. The format is cell-based. The note with it: chlorocebus sabaeus, read-out: LC50.
The test system of data set [5] is HEK293. As to the kind of experiment: Cytotoxicity against human HEK293 cells after 24 hrs by MTT assay. The format is functional. The conditions noted are these: HEK293, 24 h, read-out: LC50 (the source's name).
For data set [6], the system named is HEK293. Kind of data set: Induction of apoptosis in human HEK293 cells assessed as reduction of Bcl-xL level after 48 hrs by Western blot analysis. The data set is classed as functional, cell-based.
Data set [7] is described as follows: Cytotoxicity against african green monkey Vero cells after 72 hrs by MTT assay. The format is cell-based. The note with it: chlorocebus sabaeus, read-out: LC50.
Data set [8] deals with HEK293. As to the kind of experiment: Induction of apoptosis in human HEK293 cells assessed as increase in caspase-3 expression after 48 hrs by immunohistochemistry analysis. The data set is classed as functional, cell-based.
Data set [9] relates to HEK293. Kind of data set: Cytotoxicity against human HEK293 cells after 72 hrs by MTT assay. The conditions noted are these: HEK293, 72 h, read-out: LC50 (the source's name). The format is functional.
Data set [10] has as its system HEK293. As to the kind of experiment: Induction of apoptosis in human HEK293 cells assessed as increase in caspase-3 cleavage after 48 hrs by Western blot analysis. The data set is classed as functional, cell-based.
The subject of data set [11] is HEK293. Kind of data set: Cell cycle arrest in human HEK293 cells assessed as accumulation at S phase at LC50 after 48 hrs by propidium iodide staining based FACS analysis (reference value: 18.92 %). The format is functional. A general note: A flow cytometer gives signals particle by particle.
Data set [12] relates to HEK293. As to the kind of experiment: Induction of apoptosis in human HEK293 cells assessed as bubble shape nuclei at LC50 after 48 hrs using DAPI staining method. The data set is classed as functional, cell-based.
Data set [13] relates to HEK293. As to the kind of experiment: Cell cycle arrest in human HEK293 cells assessed as accumulation at G1 phase at LC50 after 48 hrs by propidium iodide staining based FACS analysis (reference value: 53.56 %). The data set is classed as functional.
Data set [14] relates to HEK293. Kind of data set: Induction of apoptosis in human HEK293 cells assessed as increase in induction of PARP cleavage after 48 hrs by Western blot analysis. The format is functional, cell-based.
Data set [15] has as its system HEK293. As to the kind of experiment: Cell cycle arrest in human HEK293 cells assessed as accumulation at G0 phase at LC50 after 48 hrs by propidium iodide staining based FACS analysis (reference value: 3.5 %). The format is functional.
The subject of data set [16] is HEK293. Kind of data set: Cell cycle arrest in human HEK293 cells assessed as accumulation at G2/M phase at LC50 after 48 hrs by propidium iodide staining based FACS analysis (reference value: 2.76 %). The format is functional.
In data set [17] the test system is HEK293. As to the kind of experiment: Induction of apoptosis in human HEK293 cells assessed as punchate nuclei at LC50 after 48 hrs using DAPI staining method. The format is functional, cell-based.
The test system of data set [18] is HEK293. Kind of data set: Induction of apoptosis in human HEK293 cells assessed as shrinkage of nuclei at LC50 after 48 hrs using DAPI staining method. The format is functional, cell-based.

For `COc1cc([C@@H]2c3cc4c(cc3[C@@H](O[C@@H]3O[C@@H]5CO[C@@H](C)O[C@H]5[C@H](O)[C@H]3O)[C@H]3COC(=O)[C@H]23)OCO4)cc(OC)c1O` [ETOPOSIDE], the CC50 at 48 h in data set [1] is 18 µM. In the data set with HEK293 [2], the CC50 was determined as 28 µM.
For `O=c1[nH]cc(F)c(=O)[nH]1` [FLUOROURACIL], the CC50 in the data set on HEK293 [2] amounted to 25 µM.
For the molecule `COc1cc2c(c(OC)c1OC)-c1c(c3ccccc3n1C)C2=O`, the outcome with HEK293 [3], in the data set with HEK293 [6], with HEK293 [8], in the data set with HEK293 [10], in the data set on HEK293 [12] and in the data set on HEK293 [14] was Active. Also, the result with HEK293 [17] and with HEK293 [18] was Active. Also, the CC50 at 48 h in data set [1] was 39 µM. Besides, in data set [4], the CC50 at 24 h was determined as 42 µM. In addition, the figures for the CC50 with HEK293 [5], in the data set with HEK293 [9] and in the data set on HEK293 [2] were 39 µM, 16 µM and 17 µM, respectively. Moreover, in [7], the CC50 at 72 h stood at 35 µM. Also, the Activity in the data set on HEK293 [11] stood at 19.52%; in the data set on HEK293 [13], 22.98%; with HEK293 [15], 0.23%; in the data set with HEK293 [16], 57.56%.
For the molecule `COc1cc2c(cc1OC)-c1[nH]c3ccccc3c1C2=O`, the outcome in the data set on HEK293 [3], with HEK293 [6], in the data set on HEK293 [8], in the data set with HEK293 [10], in the data set on HEK293 [12] and in the data set on HEK293 [14] was Active. The outcome in the data set on HEK293 [17] and in the data set on HEK293 [18] was Active. Also, in [1], the CC50 at 48 h stood at 54 µM. The CC50 at 24 h in [4] turned out to be 47 µM. The CC50 stood at 16 µM with HEK293 [5], 12 µM in the data set on HEK293 [9] and 15 µM with HEK293 [2]. Also, the CC50 at 72 h in [7] was determined as 55 µM. For the same molecule, the Activity is reported as 23.95% with HEK293 [11], 3.43% in the data set on HEK293 [13], 0.03% with HEK293 [15] and 73.31% in the data set with HEK293 [16].
In the case of `O=C1c2cc(F)ccc2-c2[nH]c3ccccc3c21`, the result in the data set with HEK293 [3], in the data set on HEK293 [6], with HEK293 [8], with HEK293 [10], in the data set with HEK293 [12] and in the data set with HEK293 [14] was Active. Also, the outcome in the data set on HEK293 [17] and in the data set on HEK293 [18] was Active. Also, in [1], the CC50 at 48 h was more than 100 µM. Further, the CC50 at 24 h in data set [4] is more than 100 µM. Further, the figures for the CC50 with HEK293 [5], in the data set with HEK293 [9] and in the data set on HEK293 [2] were 18 µM, 15 µM and 22 µM, respectively. Further, the CC50 at 72 h in data set [7] turned out to be 65 µM. The Activity with HEK293 [11] is listed as 23.79%; in the data set on HEK293 [13] it was 37.31%; in the data set with HEK293 [15], 0.46%; with HEK293 [16], 38.9%.
On to `O=C1c2ccccc2-c2c1c1ccccc1n2Cc1ccccc1`, for which the outcome with HEK293 [3], in the data set on HEK293 [6], in the data set with HEK293 [8], with HEK293 [10], with HEK293 [12] and with HEK293 [14] was Active. Also, the result with HEK293 [17] and in the data set with HEK293 [18] was Active. Also, the CC50 at 48 h in [1] stood at 53 µM. Also, the CC50 at 24 h in data set [4] was 57 µM. In addition, the CC50 came out at 50 µM in the data set on HEK293 [5], 16 µM with HEK293 [9] and 17 µM in the data set on HEK293 [2]. Besides, the CC50 at 72 h in data set [7] is 45 µM. Also, the Activity is 20.19% with HEK293 [11], 41.21% in the data set on HEK293 [13], 0.44% in the data set with HEK293 [15] and 38.7% in the data set on HEK293 [16].
Regarding `O=C1c2ccccc2-c2[nH]c3ccccc3c21`, the result in the data set with HEK293 [3], in the data set with HEK293 [6], with HEK293 [8], in the data set with HEK293 [10], in the data set with HEK293 [12] and in the data set with HEK293 [14] was Active. The result with HEK293 [17] and with HEK293 [18] was Active. The CC50 at 48 h in data set [1] was 48 µM. In addition, the CC50 at 24 h in [4] was determined as 56 µM. Moreover, the CC50 was found to be 50 µM in the data set with HEK293 [5], 14 µM with HEK293 [9] and 15 µM with HEK293 [2]. The CC50 at 72 h in [7] was determined as 40 µM. The Activity is 17.35% with HEK293 [11], 6.29% in the data set on HEK293 [13], 0.05% with HEK293 [15] and 76.44% in the data set on HEK293 [16].
